Measured values taken from ChEMBL document CHEMBL4311946, “Mechanistic Insight on the Mode of Action of Colletoic Acid” (J Med Chem, 2019).
Calls of active or inactive are those of the source. The rule behind the calls is not given here.

Columns and labels:
[1] = biological target: 11-beta-hydroxysteroid dehydrogenase 1 (Homo sapiens, UniProt P28845, C272S); experiment: Inhibition of N-terminal MKHQHQHQHQHQHQQPL-tagged 11beta-HSD1 C272S mutant (unknown origin) expressed in Escherichia coli BL21 (DE3) using cortisol as substrate measured for 1 hr in presence of NADPH by fluorescence assay
[2] = system: 3T3-L1; experiment: Cytotoxicity against mouse 3T3L1 cells measured after 72 hrs by celltiter-glo luminescent cell viability assay; format: ADME, cell-based; settings: 3T3-L1, 72 h
[3] = Half life in simulated gastric fluid; format: ADME
[4] = Half life in human plasma; format: ADME, cell-free
[5] = biological target: T1, 11-beta-hydroxysteroid dehydrogenase type 2 (Homo sapiens, UniProt P80365); experiment: Inhibition of 11beta-HSD2 (unknown origin) expressed in HEK293 cells using cortisone as substrate measured after 2 hrs in presence of NAD+ by HTRF assay; format: ADME, cell-based
T1 sequence (P80365 whole entry): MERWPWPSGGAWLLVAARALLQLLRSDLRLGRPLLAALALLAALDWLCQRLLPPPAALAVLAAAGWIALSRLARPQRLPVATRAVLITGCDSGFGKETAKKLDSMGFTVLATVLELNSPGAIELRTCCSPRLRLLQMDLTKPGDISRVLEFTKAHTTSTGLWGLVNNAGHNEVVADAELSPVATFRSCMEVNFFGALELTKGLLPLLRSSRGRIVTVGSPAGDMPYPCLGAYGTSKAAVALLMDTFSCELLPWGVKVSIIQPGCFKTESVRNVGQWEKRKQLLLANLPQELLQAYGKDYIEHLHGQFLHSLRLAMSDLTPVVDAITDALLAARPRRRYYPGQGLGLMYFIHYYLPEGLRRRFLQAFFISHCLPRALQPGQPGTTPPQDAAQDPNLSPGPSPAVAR

[6] = Stability in mouse plasma; format: ADME, cell-free
[7] = Half life in human liver microsomes; format: ADME, Microsome
[8] = Half life in mouse liver microsomes; format: ADME, Microsome
[9] = system: 3T3-L1; experiment: Inhibition of cell differentiation in mouse 3T3L1 cells assessed as reduction in pre-adipocyte differentiation into matured adipocytes at 50 uM incubated for 48 hrs under induction medium containing dehydrocorticosterone/cortisone followed by shifting to differentiation medium and measured after 7 days by Oil red O staining-based microscopic analysis; format: functional
[10] = biological target: T2, Peroxisome proliferator-activated receptor gamma (Homo sapiens, UniProt P37231); experiment: Antagonist activity at human PPARgamma expressed in 293H cells assessed as reduction in rosiglitazone-induced transcriptional response preincubated for 30 mins followed by rosiglitazone addition and measured after 16 hrs by reporter gene-based FRET assay; format: cell-based
T2 sequence (P37231 whole entry): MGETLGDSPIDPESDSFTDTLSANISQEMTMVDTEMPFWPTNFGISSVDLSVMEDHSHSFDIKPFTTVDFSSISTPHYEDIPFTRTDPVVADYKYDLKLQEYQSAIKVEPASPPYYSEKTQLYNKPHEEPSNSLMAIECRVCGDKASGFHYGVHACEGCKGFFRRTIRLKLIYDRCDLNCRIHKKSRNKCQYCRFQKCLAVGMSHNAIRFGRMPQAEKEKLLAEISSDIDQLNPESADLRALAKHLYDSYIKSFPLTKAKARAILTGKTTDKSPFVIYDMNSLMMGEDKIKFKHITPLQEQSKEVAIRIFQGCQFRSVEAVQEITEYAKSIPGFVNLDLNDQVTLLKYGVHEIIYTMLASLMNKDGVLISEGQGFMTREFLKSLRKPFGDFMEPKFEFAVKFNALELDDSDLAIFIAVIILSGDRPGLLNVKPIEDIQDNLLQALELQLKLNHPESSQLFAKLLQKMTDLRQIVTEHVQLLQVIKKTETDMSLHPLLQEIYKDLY

Sequence of 11-beta-hydroxysteroid dehydrogenase 1 (P28845 whole entry C272S): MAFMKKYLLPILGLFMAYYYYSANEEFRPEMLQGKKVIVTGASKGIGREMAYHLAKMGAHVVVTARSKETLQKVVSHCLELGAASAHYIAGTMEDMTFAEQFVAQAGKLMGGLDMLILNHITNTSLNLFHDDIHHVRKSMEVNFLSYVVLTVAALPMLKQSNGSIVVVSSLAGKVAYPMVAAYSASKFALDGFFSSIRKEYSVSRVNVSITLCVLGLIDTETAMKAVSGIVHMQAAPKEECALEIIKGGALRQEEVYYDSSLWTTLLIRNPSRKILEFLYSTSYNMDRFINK

Structure (SMILES) | IC50 [1] [µM] | half-life [3] [h] | half-life [4] [h] | IC50 [5] [µM] | Stability [6] | t1/2 [7] [h] | t1/2 [8] [h] | Ki [1] [µM] | EC50 [10] [µM] | EC50 [2] [µM] | inhibition [9]
C[C@]1(O)CC[C@@]2(C[C@@H]1O)[C@@H](C(=O)O)CC[C@H]2C1CCCCC1 | 379 | – | – | > 500 | – | – | – | 57.6 | – | > 500 | –
C=C1CC[C@]2(C[C@@H]1O)[C@H](C)CC[C@@H]2C(=O)O | 162 | – | – | > 500 | – | – | – | – | – | > 500 | –
COC(=O)[C@H]1CC[C@@H](C(C)C)[C@@]12CC=C(C)[C@@H](O)C2 | > 500 | – | – | > 500 | – | – | – | > 500 | – | > 500 | –
CC(C)[C@@H]1CC[C@H](C(=O)O)[C@]12C[C@@H](O)[C@@](C)(O)[C@@H](O)C2 | > 500 | – | – | > 500 | – | – | – | 130 | – | > 500 | –
CC1(C)[C@@H](OC(=O)CCC(=O)O)CC[C@]2(C)[C@H]3C(=O)C=C4[C@@H]5C[C@@](C)(C(=O)O)CC[C@]5(C)CC[C@@]4(C)[C@]3(C)CC[C@@H]12 [CARBENOXOLONE] | – | – | – | – | – | – | – | – | – | > 500 | –
C=C1CC[C@@]2(C(OC)[C@@H]1O)[C@@H](C(=O)O)CC[C@H]2C(C)C (stereo not given in full) | > 500 | – | – | > 500 | – | – | – | 145 | – | > 500 | –
O=C(Nc1ccccc1)c1cc([N+](=O)[O-])ccc1Cl | – | – | – | – | – | – | – | – | 0.002 | – | –
CC1=CC[C@@]2(C[C@@H]1O)[C@H](C(=O)O)CC[C@H]2C(C)C | > 500 | – | – | > 500 | – | – | – | – | – | > 500 | –
CC(=O)O[C@H]1C[C@]2(CC=C1C)[C@@H](C(=O)O)CC[C@H]2C(C)C | 178 | – | – | > 500 | – | – | – | – | – | > 500 | –
CC(=O)O[C@@H]1C[C@@](C)(O)CC[C@]12[C@@H](C(=O)O)CC[C@H]2C(C)C | > 500 | – | – | > 500 | – | – | – | 289 | – | > 500 | –
CC1=CC[C@@]2(C[C@@H]1O)[C@@H](C(N)=O)CC[C@H]2C(C)C | > 500 | – | – | > 500 | – | – | – | > 500 | – | > 500 | –

Continued by falling IC50 [1], values first:

IC50 [1] [µM] | half-life [3] [h] | half-life [4] [h] | IC50 [5] [µM] | Stability [6] | t1/2 [7] [h] | t1/2 [8] [h] | Ki [1] [µM] | EC50 [10] [µM] | Structure (SMILES) | EC50 [2] [µM] | inhibition [9]
80.3 | – | – | > 500 | – | – | – | – | – | CC1=CC[C@@]2(C[C@H]1O)[C@@H](C(C)C)CC[C@H]2C(=O)O | > 500 | –
71 | – | – | > 500 | – | – | – | – | – | C=C1CC[C@@]2(C[C@@H]1OC(C)=O)[C@@H](C(=O)O)CC[C@H]2C(C)C | > 500 | –
55.1 | – | – | > 500 | – | – | – | 8.23 | – | CC1=CC[C@@]2([C@H](O)C1)[C@@H](C(=O)O)CC[C@H]2C(C)C | > 500 | –
42.4 | > 6 | > 48 | > 500 | Stable | 6.8 | 2.23 | 5.15 | – | CC1=CC[C@@]2(CC1=O)[C@@H](C(=O)O)CC[C@H]2C(C)C | > 500 | –
38.3 | – | – | > 500 | – | – | – | – | – | C=C1CC[C@@]2(C[C@@H]1O)[C@@H](C(=O)O)CC[C@H]2C(C)C | > 500 | –
27.2 | > 6 | > 48 | > 500 | Stable | 1.29 | 0.3 | 4.63 | – | CC1=CC[C@@]2([C@H](O)C1)[C@@H](C(=O)O)CC[C@H]2C1CCCCC1 | > 500 | –
2.2 | > 6 | > 48 | > 500 | Stable | 0.93 | 0.27 | – | – | CC1=CC[C@@]2(C=C1)[C@@H](C(=O)O)CC[C@H]2C1CCCCC1 | > 300 | Active
1.34 | > 6 | > 48 | > 500 | Stable | 0.3 | 0.13 | 0.21 | – | CC1=CC[C@@]2(C[C@@H]1O)[C@@H](C(=O)O)CC[C@H]2C1CCCCC1 | > 500 | Active
